Measured values: PMC6068397 (ACS nano, 2018)
“Also recorded” adds a separate entry of the source.

Legend:
[1] = system: water-soluble μ-opioid receptor (wsMOR); format: binding, human; settings: 1× PBS
native MOR [2] = settings: optical assays; cited from earlier work
native MOR [3] = settings: cited from earlier work
[4] = system: water-soluble μ-opioid receptor (wsMOR); assay: wsMOR-functionalized graphene field-effect transistor; format: binding, human; settings: GFET, 1 nM oxytocin solution

In the case of β-endorphin, the “Ratio of amplitude A, β-endorphin to enkephalin” value ([1]; larger than the amplitude found for enkephalin) was ~ 1.6 times and the Limit of detection ([1]; physiological ionic strength) was “picomolar range; also recorded: picomolar level”.
For [D-Ala^2, N-MePhe^4, Gly-ol]-enkephalin, the “KA, binding between native MOR and enkephalin” value (native MOR [2]) is given as 1.2−3.1 nM.
In the case of oxytocin, the “Specific binding to native MOR” value (native MOR [3]) is listed as “known not to bind specifically to native MOR”, the “Response of the biosensor (selectivity, negative control)” value ([1]; concentrations below 1 μM, graphene microelectrode) is listed as “essentially negligible” and the “Level of nonspecific binding to wsMOR” value [4] is listed as “low level of nonspecific binding”. For the same substance, the “Sensor response (shift of the Dirac voltage, ΔVD)” value ([4]; negative control) was 0.17 V.
